{
  "source": "patent US20260008818A1",
  "about": "“CYCLIC PEPTIDE OR SALT THEREOF, AND USES THEREOF” (FUJIFILM Corporation, priority 2023, published 2026)",
  "key": {"[1]": {"tested_on": "hMSC-Human Mesenchymal Stem Cells", "test": "Mesenchymal stem cell (MSC) proliferation-promoting effect", "assay_type": "cell-based", "conditions": "0.001 to 3 nmol/L, bFGF-free custom culture medium; viable cells normalized to 1 nmol/L bFGF = 100, negative control = 0", "method": "The mesenchymal stem cell (MSC) proliferation-promoting effect of the cyclic peptide complex was evaluated.\nThe MSC was activated and subcultured according to the recommended protocol of FUJIFILM Irvine Scientific, Inc. using hMSC-Human Mesenchymal Stem Cells (Lonza, PT-2501) and PRIME-XV MSC Expansion XSFM (FUJIFILM Irvine Scientific, Inc., 91149) as a culture medium. MSCs that had been subcultured 1 to 4 times were used for the evaluation.\nThe evaluation of the proliferation-promoting effect of MSC was performed by the following method. First, a culture medium (hereinafter, referred to as a custom culture medium) in which bFGF was removed from PRIME-XV MSC Expansion XSFM (FUJIFILM Irvine Scientific, Inc., 91149) was prepared. Next, Prime-XV Human Fibronectin (FUJIFILM Irvine Scientific, Inc., 31002) was dissolved in PBS (Fujifilm Wako Pure Chemical Corporation, 164-23551), 2 μg/cm^2 of the solution was added to a 96-well plate used for evaluation, and the 96-well plate was allowed to stand at room temperature for 3 hours to coat the 96-well plate with fibronectin. […] The number of viable cells was calculated from the imaging data and normalized by setting the number of viable cells in the well to which 1 nmol/L bFGF was added to 100, and setting the number of viable cells in the negative control well to 0."}, "[2]": {"tested_on": "hMSC-Human Mesenchymal Stem Cells", "test": "Effect of maintaining MSC undifferentiated potency (gene expression)", "assay_type": "cell-based", "conditions": "cyclic peptide complex 3 nmol/L or bFGF 1 nmol/L, normalized to 1 nmol/L bFGF = 1, bFGF compared with negative control", "method": "The effect of maintaining mesenchymal stem cell (MSC) undifferentiated potency of the cyclic peptide complex was evaluated.\nMSC was prepared in the same manner as in Example 7.\nThe evaluation of the effect of maintaining the MSC undifferentiated potency was performed by the following method. First, a culture medium (hereinafter, referred to as a custom culture medium) in which bFGF was removed from PRIME-XV MSC Expansion XSFM (FUJIFILM Irvine Scientific, Inc., 91149) was prepared. Next, Prime-XV Human Fibronectin (FUJIFILM Irvine Scientific, Inc., 31002) was dissolved in PBS (Fujifilm Wako Pure Chemical Corporation, 164-23551), 2 μg/cm^2 of the solution was added to a 12-well plate used for proliferation, and the 12-well plate was allowed to stand at room temperature for 3 hours to coat the 12-well plate with fibronectin. Thereafter, the MSCs subjected to the subculture were peeled using Tryple Express (Thermo, 12604-013), washed once with a custom culture medium, suspended in a custom culture medium in which a cyclic peptide complex or bFGF (R&D Systems, 3718-GMP) was diluted to final concentrations of 3 nmol/L and 1 nmol/L, and seeded on a 12-well plate coated with fibronectin. In this case, conditions in which the cyclic peptide complex and bFGF were not added as a negative control were prepared. After culturing at 37° C. (5% CO2) for 2 nights, the culture medium was replaced by removing the supernatant of the culture medium and adding the same amount of a culture medium prepared to have the same composition as the removed culture medium. After further culturing at 37° C. (5% CO2) for 2 nights, RNA was extracted using an RNeasy Plus Mini Kit (Qiagen, 74136) according to the manufacturer's protocol. […] The expression level of each gene was normalized by setting the expression level of the well to which 1 nmol/L bFGF was added to 1."}, "[3]": {"tested_on": "bovine myoblasts", "test": "Bovine cell (myoblast) proliferation-promoting effect", "assay_type": "cell-based, Japanese Black cattle", "conditions": "0.03 to 10 nmol/L, 4 days; viable cells normalized to 30 ng/mL bFGF = 100, negative control = 0", "method": "The bovine cells (myoblasts) proliferation-promoting effect of the cyclic peptide complex was evaluated.\nBovine myoblasts were separated from bovine muscle tissue by the following method. First, muscle tissue of Japanese Black cattle was finely chopped in HBSS (−) (phenol red-free) (FUJIFILM Wako Pure Chemical Corporation, 085-09355), and then pronase from Streptomyces griseus (Sigma-Aldrich, 10165921001) was added thereto to a final concentration of 1 mg/mL, and the mixture was allowed to stand at 37° C. for 1 hour. After allowing to stand, HBSS containing 10% FBS was added thereto, and the cells were acquired by centrifugation. The acquired cells were suspended in D-MEM (high glucose) (containing L-glutamine and phenol red) (FUJIFILM Wako Pure Chemical Corporation, 044-29765) containing 10% final concentration of bovine serum and 30 ng/mL bFGF. Suspended cells were cultured in a culture flask coated with an iMatrix-511 solution (FUJIFILM Wako Pure Chemical Corporation, 381-07363) at 0.55 μg/cm^2. […]\nThe evaluation of the proliferation-promoting effect on bovine myoblasts was performed by the following method. […] The number of viable cells was calculated from the imaging data and normalized by setting the number of viable cells in the well to which 30 ng/mL bFGF was added to 100, and setting the number of viable cells in the negative control well to 0."}},
  "note": "Numbered stars: 1 amine (or outer) side, 2 acyl side, 3 side chain; on linkers, the order of the positions; unused ones are H or OH. Bridge positions count the residues as written; N and C are the ends. Square brackets hold non-standard residues; d marks the D form. Ends that are not written are not given here. I, II: the chains in the order shown. ξ: configuration not given here. ξY = NC(Cc1ccc(O)cc1)C(=O)O; ξR = N=C(N)NCCCC(N)C(=O)O; Dap = NC[C@H](N)C(=O)O; X1 = O=C(C[*:1])[*:2]; ξK = NCCCCC(N)C(=O)O; ξP = O=C(O)C1CCCN1; ξC = NC(CS)C(=O)O",
  "data": [
    {"substance": "I: H[ξC]SYERLEFHGHEAPFRV[ξK]V[Dap]-NH2 / II: HCS[ξY]E[ξR]LQFHGHEA[ξP]FRVK[dV] (linker I:2-I:19, II:2-II:19 via X1; amide I:21-II:C) [SEQ ID NO: 393, (H-(C)-SYERLQFHGHEAPFRV-(K(acetyl))-V)2-Dap]", "values": [
      {"measurement": "MSC proliferation action", "setting": "[1]", "value": "the same degree of MSC proliferation action as bFGF"},
      {"measurement": "expression level of Sox2", "setting": "[2]", "value": "the same degree of a gene expression level as bFGF"},
      {"measurement": "bovine myoblast proliferation action", "setting": "[3]", "value": "about 80%"}
    ]}
  ]
}
